The source made the active and inactive calls.
How the values were obtained:
[1] = target: T1, High affinity choline transporter 1 (Homo sapiens, UniProt Q9GZV3); assay: inhibition of SLC5A7-mediated choline transport – cell-based, HEK-293 hCHT, [3H]-choline uptake, dose response (AID 652177); type: functional
T1 sequence (Q9GZV3 whole entry): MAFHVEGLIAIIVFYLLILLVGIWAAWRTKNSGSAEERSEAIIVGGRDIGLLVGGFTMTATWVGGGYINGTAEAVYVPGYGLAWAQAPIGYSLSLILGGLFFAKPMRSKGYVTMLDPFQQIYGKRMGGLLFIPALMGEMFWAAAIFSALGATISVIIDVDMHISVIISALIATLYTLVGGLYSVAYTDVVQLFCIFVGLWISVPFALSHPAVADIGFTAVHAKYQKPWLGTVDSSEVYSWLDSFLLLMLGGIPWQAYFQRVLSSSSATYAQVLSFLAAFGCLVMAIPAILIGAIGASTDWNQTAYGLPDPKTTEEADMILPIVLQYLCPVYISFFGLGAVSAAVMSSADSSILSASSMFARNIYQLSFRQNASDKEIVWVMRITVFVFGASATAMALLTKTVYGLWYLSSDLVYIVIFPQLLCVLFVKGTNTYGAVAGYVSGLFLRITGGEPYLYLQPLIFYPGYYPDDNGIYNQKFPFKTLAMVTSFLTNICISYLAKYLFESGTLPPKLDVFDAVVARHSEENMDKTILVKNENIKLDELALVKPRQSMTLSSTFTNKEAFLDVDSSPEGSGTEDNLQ

[2] = Trypanosoma cruzi growth suppression in host cells – NIH3T3 host cells, beta-gal luminescence, confirmation (AID 2044); type: functional, cell-based;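 also: intracellular parasites grown in NIH/3T3 mouse fibroblasts as host cells; luminescent beta-galactosidase reporter signal from transgenic T. cruzi replicating inside host cells; inhibitors lower the luminescence signal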
[3] = blockers of FN fibrillogenesis by fibroblasts – AH1F cells, Alexa488-FN fluorescence, cherry-picks, dose response (AID 1035475); type: functional, cell-based
[4] = NIH3T3 cell viability loss – ATP luminescence, mouse fibroblasts, counter-screen, dose response (AID 2010); type: functional, cell-based;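 also: cells exposed to compound for about 90 hours before reading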
[5] = A Cell-Based Confirmatory Screen for Compounds that Inhibit VEEV, TC-83 (8).; type: functional
[6] = A Cell-Based Confirmatory Screen for Compounds that Inhibit VEEV, TC-83 (7).; type: functional
[7] = Vero E6 cell cytotoxicity, dose response, cytotoxicity control for non-replicating M. tuberculosis project, secondary assay (AID 492998); type: functional, VeroE6; details: Vero C1008
[8] = NIH-3T3 fibroblast cytotoxicity, dose response, cytotoxicity control, cell-based, fluorescence, Alamar Blue, secondary assay (AID 2327); type: functional;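 also: NIH-3T3 mouse fibroblasts cultured with fluconazole at 8 µg/mL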
[9] = THP-1 cell cytotoxicity, dose response, cytotoxicity control for non-replicating M. tuberculosis project (AID 489025); type: functional
[10] = target: 1-phosphatidylinositol 4,5-bisphosphate phosphodiesterase gamma-1 (Homo sapiens, UniProt P19174); assay: Counterscreen for inhibitors of phospholipase C isozymes (PLC-B3): Fluorescence-based biochemical high throughput dose response assay to identify inhibitors of phospholipase C isozymes (PLC-gamma1).
1-phosphatidylinositol 4,5-bisphosphate phosphodiesterase gamma-1, sequence (P19174 whole entry): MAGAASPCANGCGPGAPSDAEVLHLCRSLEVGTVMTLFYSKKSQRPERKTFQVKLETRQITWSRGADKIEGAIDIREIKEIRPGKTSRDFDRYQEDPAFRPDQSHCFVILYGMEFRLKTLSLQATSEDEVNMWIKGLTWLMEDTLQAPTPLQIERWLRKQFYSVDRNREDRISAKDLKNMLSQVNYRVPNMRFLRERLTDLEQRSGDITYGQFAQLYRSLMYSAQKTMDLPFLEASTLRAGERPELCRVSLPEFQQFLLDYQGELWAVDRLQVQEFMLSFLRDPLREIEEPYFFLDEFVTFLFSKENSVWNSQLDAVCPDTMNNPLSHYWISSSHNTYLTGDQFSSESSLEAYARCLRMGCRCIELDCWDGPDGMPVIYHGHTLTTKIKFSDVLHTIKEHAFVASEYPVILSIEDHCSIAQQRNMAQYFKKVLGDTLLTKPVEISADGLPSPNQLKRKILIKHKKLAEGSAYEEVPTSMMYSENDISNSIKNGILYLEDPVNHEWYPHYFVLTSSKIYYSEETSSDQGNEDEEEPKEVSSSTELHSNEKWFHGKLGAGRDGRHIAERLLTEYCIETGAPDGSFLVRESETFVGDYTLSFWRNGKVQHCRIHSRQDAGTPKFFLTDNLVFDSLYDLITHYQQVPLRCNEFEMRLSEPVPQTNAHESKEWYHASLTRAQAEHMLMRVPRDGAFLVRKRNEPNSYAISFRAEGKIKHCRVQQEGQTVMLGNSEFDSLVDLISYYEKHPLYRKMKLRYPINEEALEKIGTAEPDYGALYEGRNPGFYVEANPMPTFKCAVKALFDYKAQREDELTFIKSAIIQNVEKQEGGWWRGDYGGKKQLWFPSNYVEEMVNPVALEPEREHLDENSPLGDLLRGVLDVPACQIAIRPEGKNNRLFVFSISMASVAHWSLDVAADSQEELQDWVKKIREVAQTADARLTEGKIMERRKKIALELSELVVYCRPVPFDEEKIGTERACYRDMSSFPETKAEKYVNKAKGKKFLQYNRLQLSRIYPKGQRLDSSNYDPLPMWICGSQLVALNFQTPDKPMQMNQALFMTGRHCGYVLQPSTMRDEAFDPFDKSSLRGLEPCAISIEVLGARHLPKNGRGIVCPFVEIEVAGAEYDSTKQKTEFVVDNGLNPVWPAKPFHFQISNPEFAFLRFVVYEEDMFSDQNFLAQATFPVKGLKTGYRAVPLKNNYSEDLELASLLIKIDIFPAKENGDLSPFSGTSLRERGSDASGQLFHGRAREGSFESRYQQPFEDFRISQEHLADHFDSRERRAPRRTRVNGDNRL

[11] = target: 1-phosphatidylinositol 4,5-bisphosphate phosphodiesterase beta-3 (Homo sapiens, UniProt Q01970); assay: Fluorescence-based biochemical high throughput dose response assay to identify inhibitors of phospholipase C isozymes (PLC-B3).
1-phosphatidylinositol 4,5-bisphosphate phosphodiesterase beta-3, sequence (Q01970 whole entry): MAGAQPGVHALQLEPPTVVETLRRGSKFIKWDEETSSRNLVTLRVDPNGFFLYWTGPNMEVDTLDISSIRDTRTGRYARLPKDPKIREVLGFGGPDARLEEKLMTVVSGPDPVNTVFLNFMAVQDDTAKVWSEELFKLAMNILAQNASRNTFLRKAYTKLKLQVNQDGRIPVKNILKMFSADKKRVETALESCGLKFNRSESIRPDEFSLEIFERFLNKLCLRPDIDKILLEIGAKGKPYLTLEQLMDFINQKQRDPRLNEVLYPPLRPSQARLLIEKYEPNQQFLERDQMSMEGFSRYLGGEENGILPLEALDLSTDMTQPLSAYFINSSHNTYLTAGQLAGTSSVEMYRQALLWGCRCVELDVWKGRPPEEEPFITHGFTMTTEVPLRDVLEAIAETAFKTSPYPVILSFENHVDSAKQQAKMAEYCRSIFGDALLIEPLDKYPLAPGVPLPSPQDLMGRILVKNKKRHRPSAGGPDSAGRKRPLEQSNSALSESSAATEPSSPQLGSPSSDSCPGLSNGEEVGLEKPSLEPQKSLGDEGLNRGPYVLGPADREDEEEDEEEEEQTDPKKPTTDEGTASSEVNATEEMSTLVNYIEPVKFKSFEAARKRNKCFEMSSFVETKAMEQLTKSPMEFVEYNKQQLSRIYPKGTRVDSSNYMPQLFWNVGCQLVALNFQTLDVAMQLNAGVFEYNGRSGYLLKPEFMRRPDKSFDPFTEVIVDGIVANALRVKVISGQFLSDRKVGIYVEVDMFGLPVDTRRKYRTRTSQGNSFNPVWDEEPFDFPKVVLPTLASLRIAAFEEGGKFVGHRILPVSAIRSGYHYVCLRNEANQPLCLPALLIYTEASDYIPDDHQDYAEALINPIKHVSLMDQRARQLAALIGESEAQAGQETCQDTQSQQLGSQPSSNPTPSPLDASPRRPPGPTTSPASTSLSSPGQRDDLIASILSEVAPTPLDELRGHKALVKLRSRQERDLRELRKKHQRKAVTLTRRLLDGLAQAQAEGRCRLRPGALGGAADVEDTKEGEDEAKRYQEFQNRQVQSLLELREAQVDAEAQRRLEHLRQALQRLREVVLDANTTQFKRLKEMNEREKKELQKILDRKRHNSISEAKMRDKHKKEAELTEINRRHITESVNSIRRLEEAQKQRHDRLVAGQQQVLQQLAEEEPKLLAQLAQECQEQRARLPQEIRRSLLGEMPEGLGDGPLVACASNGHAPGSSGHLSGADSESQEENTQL

[12] = fluconazole-exposed Candida albicans growth modulators – fluorescence, retest, confirmation (AID 2467); type: functional, cell-based
[13] = target: T2, Acyl-homoserine lactone acylase PvdQ (Pseudomonas aeruginosa (strain LESB58), UniProt Q9I194); assay: PvdQ acylase enzyme activity blockers – biochemical, fluorescence, plate reader and imaging, cherry-picks, dose response (AID 493231)
T2 sequence (Q9I194 whole entry): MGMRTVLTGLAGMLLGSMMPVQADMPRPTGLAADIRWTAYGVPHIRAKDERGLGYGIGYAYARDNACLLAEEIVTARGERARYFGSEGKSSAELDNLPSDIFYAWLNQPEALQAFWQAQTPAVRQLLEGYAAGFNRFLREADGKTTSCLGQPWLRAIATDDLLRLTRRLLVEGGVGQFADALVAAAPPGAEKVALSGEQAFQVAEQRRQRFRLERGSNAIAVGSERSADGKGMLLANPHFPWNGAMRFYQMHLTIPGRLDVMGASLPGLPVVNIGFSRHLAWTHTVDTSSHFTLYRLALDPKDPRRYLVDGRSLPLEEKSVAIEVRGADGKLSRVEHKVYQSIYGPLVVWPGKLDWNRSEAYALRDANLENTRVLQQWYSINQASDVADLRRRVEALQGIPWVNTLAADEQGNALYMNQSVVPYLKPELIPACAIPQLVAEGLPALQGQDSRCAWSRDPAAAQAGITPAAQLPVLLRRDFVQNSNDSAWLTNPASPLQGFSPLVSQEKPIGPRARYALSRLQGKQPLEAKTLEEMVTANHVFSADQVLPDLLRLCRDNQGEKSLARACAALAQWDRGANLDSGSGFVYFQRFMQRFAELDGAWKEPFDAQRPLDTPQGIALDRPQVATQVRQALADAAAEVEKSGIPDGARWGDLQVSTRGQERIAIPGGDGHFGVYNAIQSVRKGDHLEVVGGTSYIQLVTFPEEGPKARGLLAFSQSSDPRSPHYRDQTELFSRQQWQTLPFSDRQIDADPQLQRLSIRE

[14] = cells
[15] = target: T3, Oxysterols receptor LXR-beta (Homo sapiens, UniProt P55055); type: functional, cell-based;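 also: Cell-based luminescence dose-response assay of agonist activity at LXR, run as a confirmatory counterscreen to a daf-12 agonist screen; HEK293 cells with Gal4-LXR fusion and GAL4-driven luciferase reporter; agonist potency from rising luciferase signal of a Gal4-LXR reporter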
T3 sequence (P55055 whole entry): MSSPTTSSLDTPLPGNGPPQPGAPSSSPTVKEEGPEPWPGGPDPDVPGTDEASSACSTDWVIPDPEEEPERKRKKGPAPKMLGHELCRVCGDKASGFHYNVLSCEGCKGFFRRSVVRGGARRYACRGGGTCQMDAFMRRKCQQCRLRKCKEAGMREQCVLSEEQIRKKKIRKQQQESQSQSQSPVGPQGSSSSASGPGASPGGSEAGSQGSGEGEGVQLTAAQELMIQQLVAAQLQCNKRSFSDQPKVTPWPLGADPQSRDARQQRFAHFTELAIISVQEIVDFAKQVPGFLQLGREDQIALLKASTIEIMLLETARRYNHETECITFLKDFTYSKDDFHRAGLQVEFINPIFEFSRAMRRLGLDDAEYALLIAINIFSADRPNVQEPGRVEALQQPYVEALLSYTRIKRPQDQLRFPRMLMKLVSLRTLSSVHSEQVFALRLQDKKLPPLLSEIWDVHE

[16] = target: NS3 (Hepatitis C virus, UniProt A3EZJ3); assay: NS3h DNA-binding inhibition IC50 – biochemical, fluorescence polarization, ChemBridge library, dose response (AID 743264)
NS3, sequence (A3EZJ3 whole entry): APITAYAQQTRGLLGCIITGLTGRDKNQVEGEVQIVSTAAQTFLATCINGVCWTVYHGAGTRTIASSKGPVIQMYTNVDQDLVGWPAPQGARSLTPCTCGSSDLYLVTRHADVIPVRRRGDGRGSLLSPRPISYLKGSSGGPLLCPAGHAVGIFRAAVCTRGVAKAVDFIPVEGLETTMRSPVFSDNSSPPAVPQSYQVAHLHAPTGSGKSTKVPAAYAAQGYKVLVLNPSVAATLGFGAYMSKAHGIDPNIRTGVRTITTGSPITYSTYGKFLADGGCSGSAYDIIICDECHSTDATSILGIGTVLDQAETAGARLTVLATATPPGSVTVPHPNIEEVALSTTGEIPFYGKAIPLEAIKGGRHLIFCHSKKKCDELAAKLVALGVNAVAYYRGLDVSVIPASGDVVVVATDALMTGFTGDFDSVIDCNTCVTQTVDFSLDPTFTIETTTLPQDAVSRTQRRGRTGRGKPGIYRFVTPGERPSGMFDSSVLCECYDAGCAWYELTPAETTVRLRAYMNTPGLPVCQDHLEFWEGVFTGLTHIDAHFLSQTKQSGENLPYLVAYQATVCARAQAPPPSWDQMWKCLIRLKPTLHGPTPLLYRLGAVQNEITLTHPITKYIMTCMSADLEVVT

[17] = T. cruzi growth inhibition in host cells, dose response, cell-based, plate reader, dry powder, set 2 (AID 652275); type: functional
[18] = mouse embryonic fibroblast toxicity – cell-based, plate reader, dry powder, set 2, cytotoxicity control, dose response (AID 652280); type: functional; details: NIH3T3

Q: Which IC50 [1] does the source give for `COc1ccc(C(=O)NCc2cc(C(C)C)no2)cc1OCCN1CCOCC1` here?
A: 6.12 µM (active)

Q: Which EC50 [2] does the source give for `O=C(Nc1cc(Sc2nc3ccccc3s2)cc([N+](=O)[O-])c1)c1ccccc1F` here?
A: 1.92 µM (active)

Q: What about the AC50 [3] of the same molecule?
A: 24.3 µM (active)

Q: What about the EC50 [4] of the same molecule?
A: > 60 µM (not active)

Q: Which results are given for `O=c1c2cc([N+](=O)[O-])ccc2nc(CN2CCCNCC2)n1-c1ccccc1`?
A: IC50 [5]: 0.94 µM (active); IC50 [6]: 2.48 µM (inconclusive)

Q: What does the source list for `Cc1ccc(S(=O)(=O)CCC(=O)Nc2nc(-c3ccncc3)cs2)cc1`?
A: CC50 [7]: > 20 µM (active); EC50 [8]: 17.1 µM (inconclusive); CC50 [9]: > 40 µM (active); IC50 [10]: > 122 µM (inactive); IC50 [11]: > 122 µM (inactive); EC50 [12]: 6.58 µM (active)

Q: What does the source list for `COc1ccc(-c2cc(=O)c3ccccc3s2)cc1`?
A: AC50 [13]: > 100 µM (inactive); EC50 [14]: > 67.5 µM (inactive); EC50 [15]: > 67.5 µM (inactive)

Q: Which IC50 [16] does the source give for `O=C1NC(=S)N(c2ccccc2)C(=O)/C1=C/c1ccc(-c2ccc(C(=O)O)c(Cl)c2)o1` here?
A: 96.9 µM (active)

Q: Which results are given for `Cc1cccc(-c2ccc([C@H]3[C@H](CO)N4CCCCN(Cc5cccnc5)C[C@@H]34)cc2)c1`?
A: AC50 [17]: 0.259 µM (active); AC50 [18]: 17.9 µM (active)

Reference: ChEMBL document CHEMBL1201862, “PubChem BioAssay data set” (2004)
